Columns and labels:
[1] = test system: VERO cells; test: Cytotoxicity assay in VERO cells (MTT); assay type: cell-based; conditions: Chlorocebus sabaeus, 72 h
Protocol: The in vitro evaluations of compounds toxicity by MTT in VERO cells were performed as described in brief: VERO cells culture in DMEM, BSF 10%, were counted in suspension, seeded at 2 × 10^4 cells/well (100 μL) into a 96-well microplate, and incubated at 37 °C in a humidified 5% CO2 incubator for 24 h. After the incubation period, compounds were added in different concentrations: 50, 100, 150, 200, and 500 μM. The plate was incubated for 72 h in the same conditions. Then, 5 mg mL^−^1 of 3-(4,5-dimethylthiazol-2-yl)-2,5-diphenyl tetrazolium bromide (MTT) was added and incubated in darkness for 4 h. After this time, DMSO was added and the plate was read at 540 nm in a spectrophotometer Synergy HT (Biotek). The test was carried out in triplicate including untreated cells and reference drug controls.

[2] = test system: T. cruzi epimastigotes (Y strain); test: Trypanocidal activity, proliferation of T. cruzi epimastigotes (MTT); assay type: cell-based; conditions: Trypanosoma cruzi, 96 h, read-out: %ITcP: T. cruzi (epimastigotes) % inhibition proliferation
Protocol: The trypanocidal activity of compounds 7–39 was evaluated on the viability of T. cruzi epimastigotes (Y Strain). Parasites were cultivated in LIT medium supplemented with 10% FBS. The MTT method was used with minor modifications. Next, 2 × 10^6 parasites/mL were seeded in a 96-well plate, adding 50 μM of each derivative dissolved in DMSO (final concentration remained below 1%). The plate was incubated for 96 h at 29 °C. Then, 5 mg mL^−^1 of 3-(4,5-dimethylthiazol-2-yl)-2,5-diphenyl tetrazolium bromide (MTT) was added and incubated in darkness for 4 h. After this time, acidic isopropanol (4N) was added and the plate was read at 540 nm in a spectrophotometer Synergy HT (Biotek). Benznidazole (50 µM) was used as a reference drug.

Row | melting point [°C] | Structure (SMILES) | IC50 [1] [µM] | inhibition at 50 µM [2] [%]
1 | 127 to 129 | Cc1cccc2c1C/C(=C\c1ccc(OCc3ccccc3)cc1)C2=O [compound 27, (E)-2-[4-(Benzyloxy)benzylidene]-2,3-dihydro-4-methylinden-1-one] | – | –
2 | – | COc1ccc2c(c1)C(=O)/C(=C/c1ccc(SCc3ccccc3)cc1)CC2 [compound 35, (E)-2-[4-(Benzylthio)benzylidene]-3,4-dihydro-7-methoxynaphthalen-1(2H)-one] | > 150 | 36.2 ± 6.1
3 | – | O=C(Cn1ccnc1[N+](=O)[O-])NCc1ccccc1 [Bnz, benznidazole, reference compound] | > 200 | 60 ± 2.9
4 | 170 | O=C1/C(=C/c2ccc(OCc3ccccc3)cc2)Cc2ccccc21 [compound 20, (E)-2-[4-(Benzyloxy)benzylidene]-2,3-dihydroinden-1-one] | – | –
5 | 122 to 124 | COc1ccc2c(c1)CC/C(=C\c1ccc(SCc3ccccc3)cc1)C2=O [compound 34, (E)-2-[4-(Benzylthio)benzylidene]-3,4-dihydro-6-methoxynaphthalen-1(2H)-one] | – | –
6 | 178 to 179 | COc1ccc2c(c1)C(=O)/C(=C/c1ccc(OCc3ccccc3)cc1)C2 [compound 22, (E)-2-[4-(Benzyloxy)benzylidene]-2,3-dihydro-6-methoxyinden-1-one] | – | –
7 | 167 to 168 | COc1ccc2c(c1OC)C/C(=C\c1ccc(OCc3ccccc3)cc1)C2=O [compound 23, (E)-2-[4-(Benzyloxy)benzylidene]-2,3-dihydro-4,5-dimethoxyinden-1-one] | – | –
8 | 170 to 172 | O=C1/C(=C/c2ccc(SCc3ccccc3)cc2)Cc2cc(F)cc(F)c21 [compound 19, (E)-2-[4-(Benzylthio)benzylidene]-5,7-difluoro-2,3-dihydroinden-1-one] | > 150 | –
9 | 194 to 196 | O=C1/C(=C/c2ccc(SCc3ccccc3)cc2)Cc2cc3c(cc21)OCO3 [compound 14, (E)-2-[4-(Benzylthio)benzylidene]-2,3-dihydro-5,6-methylendioxyinden-1-one] | – | –
10 | 176 to 178 | COc1cc2c(c(OC)c1)C(=O)/C(=C/c1ccc(SCc3ccccc3)cc1)C2 [compound 13, (E)-2-[4-(Benzylthio)benzylidene]-2,3-dihydro-5,7-dimethoxyinden-1-one] | – | –
11 | 202 to 203 | O=C1/C(=C/c2ccc(OCc3ccccc3)cc2)Cc2c(Cl)cc(Cl)cc21 [compound 30, (E)-2-[4-(Benzyloxy)benzylidene]-4,6-dichloro-2,3-dihydroinden-1-one] | – | –
12 | 181 to 183 | O=C1/C(=C/c2ccc(SCc3ccccc3)cc2)Cc2c(Cl)cc(Cl)cc21 [compound 18, (E)-2-[4-(Benzylthio)benzylidene]-4,6-dichloro-2,3-dihydroinden-1-one] | – | –
13 | 166 to 168 | COc1ccc2c(c1)C/C(=C\c1ccc(SCc3ccccc3)cc1)C2=O [compound 8, (E)-2-[4-(Benzylthio)benzylidene]-2,3-dihydro-5-methoxyinden-1-one] | – | –
14 | 155 to 157 | O=C1/C(=C/c2ccc(SCc3ccccc3)cc2)Cc2ccccc21 [compound 7, (E)-2-[4-(Benzylthio)benzylidene]-2,3-dihydroinden-1-one] | – | –
15 | – | COc1cccc2c1CC/C(=C\c1ccc(SCc3ccccc3)cc1)C2=O [compound 33, (E)-2-[4-(Benzylthio)benzylidene]-3,4-dihydro-5-methoxynaphthalen-1(2H)-one] | > 150 | 51.1 ± 3.4
16 | 175 to 177 | COc1ccc2c(c1)C(=O)/C(=C/c1ccc(SCc3ccccc3)cc1)C2 [compound 9, (E)-2-[4-(Benzylthio)benzylidene]-2,3-dihydro-6-methoxyinden-1-one] | – | –
17 | 140 to 142 | O=C1/C(=C/c2ccc(SCc3ccccc3)cc2)Cc2cc(Cl)ccc21 [compound 16, (E)-2-[4-(Benzylthio)benzylidene]-5-chloro-2,3-dihydroinden-1-one] | – | –
18 | 189 to 190 | O=C1/C(=C/c2ccc(OCc3ccccc3)cc2)Cc2cc(Cl)ccc21 [compound 28, (E)-2-[4-(Benzyloxy)benzylidene]-5-chloro-2,3-dihydroinden-1-one] | – | –
19 | 186 to 187 | O=C1/C(=C/c2ccc(OCc3ccccc3)cc2)Cc2ccc(Cl)cc21 [compound 29, (E)-2-[4-(Benzyloxy)benzylidene]-6-chloro-2,3-dihydroinden-1-one] | – | –
20 | 141 to 142 | COc1ccc2c(c1)C/C(=C\c1ccc(OCc3ccccc3)cc1)C2=O [compound 21, (E)-2-[4-(Benzyloxy)benzylidene]-2,3-dihydro-5-methoxyinden-1-one] | – | –
21 | 167 to 169 | Cc1cccc2c1C/C(=C\c1ccc(SCc3ccccc3)cc1)C2=O [compound 15, (E)-2-[4-(Benzylthio)benzylidene]-2,3-dihydro-4-methylinden-1-one] | – | –
22 | 207 to 208 | COc1cc2c(cc1OC)C(=O)/C(=C/c1ccc(OCc3ccccc3)cc1)C2 [compound 24, (E)-2-[4-(Benzyloxy)benzylidene]-2,3-dihydro-5,6-dimethoxyinden-1-one] | – | –
23 | 204 to 206 | O=C1/C(=C/c2ccc(OCc3ccccc3)cc2)Cc2cc(F)cc(F)c21 [compound 31, (E)-2-[4-(Benzyloxy)benzylidene]-5,7-difluoro-2,3-dihydroinden-1-one] | – | –
24 | 209 to 210 | COc1ccc(OC)c2c1C/C(=C\c1ccc(OCc3ccccc3)cc1)C2=O [compound 25, (E)-2-[4-(Benzyloxy)benzylidene]-2,3-dihydro-4,7-dimethoxyinden-1-one] | – | –
25 | 99 to 100 | O=C1/C(=C/c2ccc(SCc3ccccc3)cc2)CCc2ccccc21 [compound 32, (E)-2-[4-(Benzylthio)benzylidene]-3,4-dihydronaphthalen-1(2H)-one] | > 150 | 43.7 ± 6.7
26 | 204 | O=C1/C(=C/c2ccc(SCc3ccccc3)cc2)Cc2ccc(Cl)cc21 [compound 17, (E)-2-[4-(Benzylthio)benzylidene]-6-chloro-2,3-dihydroinden-1-one] | – | –
